Test results reported in PMC9772450, “Gel-forming antagonist provides a lasting effect on CGRP-induced vasodilation” (Frontiers in Pharmacology, 2022).
Where two headings read alike, the source gives them in different places. One block for each molecule: values may come before it. Non-standard residues stand in square brackets, D forms with d. Residues, ends and D or L forms follow the SMILES beside them. *: point of attachment. 2Nal = N[C@@H](Cc1ccc2ccccc2c1)C(=O)O; Arg(Me) = CNC(=N)NCCC[C@H](N)C(=O)O; Palmitoyl = CCCCCCCCCCCCCCCC(=O)*; Nva = CCC[C@H](N)C(=O)O

Experiments:
[1] = cited from earlier work
[2] = Visual (tube-tapping) assay of gel-forming capability and solubility; assay type: physicochemical; set-up: key to Gel-forming ability: Y: can form a liquid gel; N: lacks the ability to efficiently form a liquid gel; details: for Gel-forming ability: visual inspection of 11% peptide solutions, tube-tapping, 20 min after mixing
Protocol: To evaluate the ability of peptides to form gels in situ, we initially determined this tendency qualitatively based on visual examinations of peptide solutions using a tube-tapping method. In addition, we quantitatively determined the viscosity of select peptide solutions using a viscometer (Rheosense Inc; http://www.rheosense.com/products/viscometers) ([Yan and Pochan, 2010]). In the visual assay, aliquots of peptides were dissolved in an aqueous solution (i.e., de-ionized water, saline, or 5% glucose solution). The peptide that dissolved instantly and stayed as a clear solution without obvious macroscopic change in viscosity at 20 min after mixing was considered soluble. If macroscopic particles of peptides remained in the solution at 20 min after mixing, the peptide was considered insoluble.

[3] = Passage of peptide molecules through Centricon filters; assay type: physicochemical; details: Centricon 30,000 MW cutoff, 15 min centrifugation; specific EIA; N = 3 per group; result in words
Excerpt: To evaluate whether gel-formation reduces the movement of peptide molecules in solution, we used the Centricon® filters (Millipore) to separate samples and the carriers based on their molecular mass. The sample is monomeric peptides, and the carrier is the self-assembled gel. One milligram aliquots of the peptides were first dissolved as 0.1% solution in 5% glucose, 0.1% solution in saline, 5% solution in 5% glucose, 10% solution in 5% glucose, and 20% solution in 5% glucose. Ten minutes later, the 5%, 10%, and 20% solutions were diluted to the 0.1% level. Aliquots of these solutions were sampled and dispensed into separate Centricon columns (30,000 MW cutoff), and the monomeric peptide and gel molecules were separated by centrifugation for 15 min (2000 x g). The level of peptide in the elutes was determined by specific EIAs (Phoenix Pharmaceuticals Inc.).

CLR/RAMP1 receptor = target: T1, CLR/RAMP1 receptor (Homo sapiens, UniProt O60894+Q16602); assay: HitHunter cAMP XS+ CALCRL-RAMP1 cAMP assay, antagonist mode; assay type: cell-based; details: for IC50: CHO-K1 CALCRL-RAMP1 cAMP Hunter cells, human β-CGRP at EC80 (0.37nM), 30 min pre-incubation, 10-point curve from 10 μM, 3-fold dilutions, duplicate samples, assayed side-by-side once, read-out: IC50 for antagonizing CGRP-induced CLR/RAMP1 signaling; for Maximum response: antagonist mode, β-CGRP at EC80, 10-point curve, duplicate; for Antagonistic activity toward CGRP-mediated CLR/RAMP1 signaling compared to ADE651: result in words
T1 construct: host or cells: CHO-K1 (cAMP Hunter cell line)
T1 sequence (Q16602 23-461): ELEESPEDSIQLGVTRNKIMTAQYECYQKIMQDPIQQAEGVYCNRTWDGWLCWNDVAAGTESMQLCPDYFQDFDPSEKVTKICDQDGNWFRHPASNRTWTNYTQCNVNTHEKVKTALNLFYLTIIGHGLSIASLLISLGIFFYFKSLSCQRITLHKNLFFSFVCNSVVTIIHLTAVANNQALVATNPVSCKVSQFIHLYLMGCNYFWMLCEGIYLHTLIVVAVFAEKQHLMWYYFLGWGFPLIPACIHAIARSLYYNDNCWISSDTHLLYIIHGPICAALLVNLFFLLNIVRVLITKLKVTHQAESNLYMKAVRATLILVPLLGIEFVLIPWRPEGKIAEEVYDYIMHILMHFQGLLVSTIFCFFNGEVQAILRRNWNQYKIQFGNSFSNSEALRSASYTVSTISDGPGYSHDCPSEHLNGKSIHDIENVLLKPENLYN
T1 sequence (O60894 27-148): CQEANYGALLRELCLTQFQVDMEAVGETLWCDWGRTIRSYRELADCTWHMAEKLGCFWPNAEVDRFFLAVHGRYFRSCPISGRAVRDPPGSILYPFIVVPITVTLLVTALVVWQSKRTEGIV
Protocol: The assay of the antagonistic activity of analogs was conducted by the Eurofins Discoverx using the HitHunter cAMP XS + assay as described earlier ([Bradley and McLoughlin, 2009]; [Chang and Hsu, 2019]). The dose-dependent inhibitory effect of antagonists was studied in duplicate, at 10 different concentrations. Determination of the half-maximal inhibitory concentration (IC50) was performed using a 10-point dose-response curve. The starting concentration was 10 μM, and it was serially diluted 3-fold, in DMSO. […] Using the Hit Hunter® assay (CALCRL-RAMP1 cAMP assay in the antagonist mode; https://www.discoverx.com/products/cell-line/cho-k1-calcrl-ramp1-gs-cell-line-95-0164c2), the eight compounds in Table 1 were assayed side-by-side once, and the IC50 was derived based on the standard assay of duplicate samples of a ten-point curve. In this homogenous, non-imaging assay, the activation of CLR/RAMP1 signaling was evaluated using the Enzyme Fragment Complementation (EFC) technology with β-galactosidase (β-Gal) as the functional reporter. The enzyme was split into two complementary portions: an enzyme acceptor and an enzyme donor. The enzyme donor is fused to cAMP and it competes with cAMP generated by cells
For binding to a cAMP-specific antibody. Active β-Gal is formed by complementation of exogenous enzyme acceptor to any unbound enzyme donor-cAMP. The active enzyme then converted a chemiluminescent substrate to generate a signal. Briefly, cAMP Hunter cell lines with the select receptor were expanded from freezer stocks ([Bradley and McLoughlin, 2009]), and cells were seeded in a total volume of 20 μL into 384-well microplates and incubated at 37°C for the appropriate time. […] Intermediate dilution of samples was performed to generate 4X sample in the assay buffer. Before the assay, media was aspirated from cells and replaced with 10 μL 1:1 HBSS/Hepes:cAMP XS + Ab reagent, and 5 μL of 4X compound was added to the cells and incubated for 30 min. […] Vehicle concentration was 1%.
The chemiluminescent signal was read with a PerkinElmer chemiluminescent plate reader. The compound activity was analyzed using a CBIS data analysis suite (ChemInnovation, CA). The percentage inhibition was calculated using the following formula: % Inhibition = 100% x (1 - (mean RLU of test sample - mean RLU of vehicle control)/(mean RLU of EC80 control - mean RLU of vehicle control)). Data were normalized to the maximal and minimal response observed in the presence of EC80 agonist and vehicle.

[4] = tested on: CGRP-induced vasodilation; assay: Dermal blood flow and vasodilation in rat hindlimbs, laser Doppler imaging; assay type: in vivo, Sprague-Dawley rats; details: rat hindlimb; saline at 0 h; CGRP 1 mg/100 µL s.c. at 4 h; N = 3
Protocol: Adult Sprague Dawley male rats (body weight 150–200 g) were randomly divided into treatment groups. Animals were individually housed during the experiment. After acclimation, rats were anesthetized and stabilized under 2.5% isoflurane, and were placed on a heating pad. Testing articles were prepared just before the experiment and individually administered subcutaneously into the hindlimbs. Human β-CGRP (LifeTein LLC, Hillsborough, NJ) was dissolved in a saline solution, and the antagonist solution was prepared in a 5% glucose solution. […] In this experiment, the antagonist gel solution was administered at 0 h as a liquid solution shortly after dissolution to prevent issues associated with the formation of semi-solid gel when the peptide is dissolved at high levels. […] The amount of blood flow was determined by laser Doppler imaging as described earlier ([Van der Schueren et al., 2007]; [Benschop et al., 2014]). The laser Doppler scan series of the hindlimbs began with two baseline scans and was followed by two scans each at select time points. Data are reported as percent change from the average baseline scans.

migraine = details: cited from earlier work
Excerpt: Migraine is a common complex neurovascular disorder that is manifested as episodic and predominantly unilateral throbbing headache with hypersensitivity to light, sound, and movement ([Erdener and Dalkara, 2014]; [Schuster and Rapoport, 2016]). According to the World Health Organization, 324 million people worldwide suffer from incapacitating migraine in 2008. In ∼ one-third of patients, migraine headaches are accompanied by an aura involving neurological symptoms such as transient visual, sensory, or motor disturbances ([Goadsby et al., 2002]). In the US, it was reported that 15% of Americans ...

Molecule: abaloparatide: approved peptide therapeutic
- Volume of distribution ([1]; in vivo): 50.0 L

Molecule: setmelanotide
- Volume of distribution ([1]; approved peptide therapeutics): 48.7 L

Molecule: exenatide: approved peptide therapeutic
- Volume of distribution ([1]; in vivo): 28.3 L

Molecule: CSCC[C@H](NC(=O)CNC(=O)CNC(=O)[C@H](CO)NC(=O)[C@H](CCCNC(=N)N)NC(=O)[C@H](CO)NC(=O)[C@H](CC(C)C)NC(=O)[C@H](CC(C)C)NC(=O)CNC(=O)[C@H](C)NC(=O)[C@H](CC(C)C)NC(=O)[C@H](CCCNC(=N)N)NC(=O)[C@H](Cc1c[nH]cn1)NC(=O)[C@@H](NC(=O)[C@@H](NC(=O)[C@@H]1CSSC[C@H](NC(=O)[C@H](C)N)C(=O)N[C@@H](CC(N)=O)C(=O)N[C@@H]([C@@H](C)O)C(=O)N[C@@H](C)C(=O)N[C@@H]([C@@H](C)O)C(=O)N1)C(C)C)[C@@H](C)O)C(=O)N[C@H](C(=O)N[C@@H](CCCCN)C(=O)N[C@@H](CO)C(=O)N[C@@H](CC(N)=O)C(=O)N[C@@H](Cc1ccccc1)C(=O)N[C@H](C(=O)N1CCC[C@H]1C(=O)N[C@H](C(=O)N[C@@H](CC(N)=O)C(=O)N[C@H](C(=O)NCC(=O)N[C@@H](CO)C(=O)N[C@@H](CCCCN)C(=O)N[C@@H](C)C(=O)N[C@@H](Cc1ccccc1)C(N)=O)C(C)C)[C@@H](C)O)C(C)C)C(C)C [CGRP, calcitonin gene-related peptide]
- Solubility in 5% glucose solution ([2]; visual): soluble from 0.1% to 20%
- Peptide level in elutes from 0.1, 5, 10 and 20% solution groups [3]: similar
- EC80 of agonist in the cAMP assay (CLR/RAMP1 receptor; agonist, cAMP Hunter CLR/RAMP1 cells): 0.37 nM
- Increase in blood flow at the 5 h time point in control animals [4]: > 25%

Molecule: CC1(C)O[C@@H]2[C@@H](CO[C@@]3(COS(N)(=O)=O)OC(C)(C)O[C@@H]23)O1 [topiramate]
- Reduction of migraine days (migraine; ref Overeem et al., 2021): 1.11 migraine days

Molecule: C[C@@H]1[C@H](c2ccccc2)C[C@H](NC(=O)c2cnc3c(c2)C[C@@]2(C3)C(=O)Nc3ncccc32)C(=O)N1CC(F)(F)F [ubrogepant]
- Pain freedom at 2 h, share of acute migraine patients (migraine; 14.3% in the placebo group, ref Lipton et al., 2019, Switzer et al., 2022): 21.8%
- Absolute difference in the pain-free rate versus placebo (migraine; ref Lipton et al., 2019, Switzer et al., 2022): 6.4–7.5%

Molecule: histrelin
- Volume of distribution ([1]; in vivo): 58.4 L

Molecule: Pal-KVQ-Lys (Pyr)-LSAPVDPSSPHSY-NH2 [ADE651N, ADE651 variant, second lysine substituted with Lys (Pyr)]
- Gel-forming ability [2]: Y
- Maximum response (CLR/RAMP1 receptor): 99.9 % of positive control
- Antagonistic activity toward CGRP-mediated CLR/RAMP1 signaling compared to ADE651 (CLR/RAMP1 receptor): retained the potent antagonistic activity

More lines, main results first:

- Gel-forming ability [2]: Y
- IC50 (CLR/RAMP1 receptor): 15.1 nM
- Maximum response (CLR/RAMP1 receptor): 100.1 % of positive control
Molecule: CCCCCCCCCCCCCCCC(=O)N[C@@H](CCCCN)C(=O)N[C@H](C(=O)N[C@@H](CCC(N)=O)C(=O)N[C@@H](CCCCN)C(=O)N[C@@H](Cc1ccc2ccccc2c1)C(=O)N[C@@H](CO)C(=O)N[C@@H](C)C(=O)N1CCC[C@H]1C(=O)N[C@H](C(=O)N[C@@H](CC(=O)O)C(=O)N1CCC[C@H]1C(=O)N[C@@H](CO)C(=O)N[C@@H](CO)C(=O)N1CCC[C@H]1C(=O)N[C@@H](Cc1c[nH]cn1)C(=O)N[C@@H](CO)C(=O)N[C@@H](Cc1ccc(O)cc1)C(N)=O)C(C)C)C(C)C [ADE651H] (Palmitoyl-KVQK[2Nal]SAPVDPSSPHSY-NH2)
- Antagonistic activity toward CGRP-mediated CLR/RAMP1 signaling compared to ADE651 (CLR/RAMP1 receptor): significantly reduced antagonistic activity

- Gel-forming ability [2]: Y
Molecule: CCCCCCCCCCCCCCCC(=O)N[C@@H](CCCCN)C(=O)N[C@H](C(=O)N[C@@H](CCC(N)=O)C(=O)N[C@@H](CCCNC(=N)NC)C(=O)N[C@@H](CC(C)C)C(=O)N[C@@H](CO)C(=O)N[C@@H](C)C(=O)N1CCC[C@H]1C(=O)N[C@H](C(=O)N[C@@H](CC(=O)O)C(=O)N1CCC[C@H]1C(=O)N[C@@H](CO)C(=O)N[C@@H](CO)C(=O)N1CCC[C@H]1C(=O)N[C@@H](Cc1c[nH]cn1)C(=O)N[C@@H](CO)C(=O)N[C@@H](Cc1ccc(O)cc1)C(N)=O)C(C)C)C(C)C [ADE651M] (Palmitoyl-KVQ[Arg(Me)]LSAPVDPSSPHSY-NH2)
- Antagonistic activity toward CGRP-mediated CLR/RAMP1 signaling compared to ADE651 (CLR/RAMP1 receptor): retained the potent antagonistic activity

- Gel-forming ability [2]: Y
- IC50 (CLR/RAMP1 receptor): 1.3 nM
- Maximum response (CLR/RAMP1 receptor): 101 % of positive control
Molecule: CCCCCCCCCCCCCCCC(=O)N[C@@H](CCCCN)C(=O)N[C@H](C(=O)N[C@@H](CCC(N)=O)C(=O)N[C@@H](CCCCN)C(=O)N[C@@H](CCC)C(=O)N[C@@H](CO)C(=O)N[C@@H](C)C(=O)N1CCC[C@H]1C(=O)N[C@H](C(=O)N[C@@H](CC(=O)O)C(=O)N1CCC[C@H]1C(=O)N[C@@H](CO)C(=O)N[C@@H](CO)C(=O)N1CCC[C@H]1C(=O)N[C@@H](Cc1c[nH]cn1)C(=O)N[C@@H](CO)C(=O)N[C@@H](Cc1ccc(O)cc1)C(N)=O)C(C)C)C(C)C [ADE651C] (Palmitoyl-KVQK[Nva]SAPVDPSSPHSY-NH2)
- Antagonistic activity toward CGRP-mediated CLR/RAMP1 signaling compared to ADE651 (CLR/RAMP1 receptor): retained the potent antagonistic activity

- Solubility in 5% glucose solution ([2]; visual): soluble from 0.1% to 20%
- Liquid gel formation at 6–20% level ([2]; visual, result in words): does not form a liquid gel
- Peptide level in elutes from 0.1, 5, 10 and 20% solution groups [3]: similar
Molecule: VGCRFGTCTVQKLAHLWQLMGPAGRQDSAPVDPSSPHSY-NH2 [ADE410]
